Measurements reported in ChEMBL document CHEMBL4130444, “1,4-Naphthoquinones as inhibitors of Itch, a HECT domain-E3 ligase, and tumor growth suppressors in multiple myeloma” (Eur J Med Chem, 2017).

Key:
MDA-MB-231 = experiment: Antiproliferative activity against human MDA-MB-231 cells incubated for 48 hrs by SRB assay; assay type: functional; details: MDA-MB-231, 48 h
HCT-116 = experiment: Antiproliferative activity against human HCT116 cells incubated for 48 hrs by SRB assay; assay type: functional; details: HCT-116, 48 h

Row | Compound | GI50 (MDA-MB-231) [µM] | GI50 (HCT-116) [µM]
1 | O=C(Nc1ccc2ncccc2c1)c1ccc(CNC2=C(Cl)C(=O)c3ccccc3C2=O)cc1 | > 10 | 6.8
2 | O=C(Nc1nccs1)c1ccc(CNC2=C(Cl)C(=O)c3ccccc3C2=O)cc1 | > 10 | > 10
